Measured values from US12157746B2, “Tetrahydro-1H-pyrazino[2,1-a]isoindolylquinoline compounds for the treatment of autoimmune disease” (F. HOFFMANN-LA ROCHE AG, priority 2018, dated 2024).

Key:
[1] = tested on: Balb/c 3T3 mouse fibroblasts; test: 3T3 in vitro phototoxicity assay; type: cell-based; details: Neutral Red uptake; for Phototoxicity factor: Factor=IC50(−UV)/IC50(+UV), cut-off factor >5; for IC50: Mus musculus, BALB/c3T3, light or radiation study, with approx. 5 J/cm2 UVA light
Excerpt: 3T3 In Vitro Phototoxicity Assay
Phototoxicity is defined as a toxic response that is elicited after the first exposure of the skin to certain chemicals and subsequent exposure to light, or that is induced similarly by skin irradiation after systemic administration of a chemical substance. The assay used in this study is designed to detect the phototoxic potential of a chemical by using a simple in vitro cytotoxicity assay with Balb/c 3T3 mouse fibroblasts. The principle of this test is a comparison of the cytotoxicity of a chemical when tested with and without exposure to a non-toxic dose of UVA-light. Cytotoxicity is expressed as a dose dependent reduction of the growth rate of cells as determined by uptake of the vital dye Neutral Red one day after treatment.
A small amount of substance was weighed and formulated freshly in DMSO just before the start of the exposure of the cells. This stock solution or appropriate dilutions with DMSO were added to the cell suspensions to obtain the required final concentrations. All solutions were generally prepared in Eppendorf caps and discarded after use.
For this study the Neutral Red uptake (NRU) assay of Borenfreund and Puemer (Borenfreund, E, Puemer J A. Toxicity determined in vitro by morphological alterations and Neutral Red absorption. Toxicology Lett. 1985; 24:119-124) modified according to INVITTOX protocol No 78 (ERGATT/FRAME data bank of in vitro techniques in toxicology. INVITTOX PROTOCOL No 78. 3T3 NRU Phototoxicity Assay. March 1994) has been adapted to examine a possible phototoxic potential of the test item. This assay is based on the active uptake of the Neutral Red dye into the lysosomes of cultured murine fibroblasts. Because lysosomal membranes are known to be a site of action of many phototoxic compounds, this assay can provide a measure of potential for phototoxic injury.
A murine fibroblasts clone A 31 (ATCC no. CCL 163—passage No. 108) were cultured in 175 cm2 tissue culture grade flasks, containing sDMEM (Dulbecco's Minimal Essential Medium, supplemented with 10% fetal calf serum, 2 mM L-glutamine, 100 units/ml Penicillin and 100 μg/ml streptomycin) at 37° C. in a humidified atmosphere of 6% C02. Before cells approach confluence they were removed from flasks by trypsinisation. Prior to use in an assay, the cells were transferred to 96-well microtiter plates at a concentration of 1×10^4 cells/well in 100 μl volumes of sDMEM and allowed to attach for 24 h.
For incubation with murine fibroblasts, the test item was diluted in PBS/3% DMSO (detailed concentrations see in results).
Culture medium (Dulbecco's Modified Eagle Medium (DMEM), GlutaMAX (Gibco Ref 21885-025), 10% Fetal Bovine Serum (FBS) (Gibco Ref 10270-106), 100 IU/ml Penicillin and 100 μg/ml Streptomycin (Gibco Ref 15140-122)) was removed from the wells and murine fibroblasts were washed with PBS. Afterwards 100 μL of PBS/3% DMSO containing the test item was added and target cells were incubated for 1 h at 37° C. with 6% CO2.
For each test item the microtiter plates were prepared according to Table 4. “UVA plates” were exposed to approx. 5 J/cm2 UVA light, the “Dark plates” were kept in the dark and served as cytotoxicity control. Plates with chlorpromazine hydrochloride served as positive control. UV flux was measured with a UV-meter (Dr. Gröbel RM21).
Following UV irradiation, the test item was removed from the wells (one washing step with PBS) and replaced with sDMEM. Target cells were then incubated overnight at 37° C. in 6% CO2.
Each plate contained wells with cells and solvent but without test item which were either not incubated with Neutral Red solution (0% standard—S1) or were stained with Neutral Red (100% standard—S2) for calculation of the standard cell viability curve. Wells labeled with U01-U08 contained the different test item concentrations.
After the incubation the wells to be assayed were filled with 100 μL of the sDMEM containing Neutral Red. […]

[2] = Human microsomal stability assay; type: in vitro ADME; details: human liver microsomes 0.5 mg/mL, 37° C., pH 7.4, NADPH regenerating system, 0-30 minutes
Summary of the method: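 Human liver microsomes (0.5 mg/mL) with […] compound in 100 mM potassium phosphate, pH 7.4, 37° C; reaction started with NADPH regenerating system after 10 min preincubation. Parent remaining at 0–30 min quantified by LC-MS/MS; clearance binned low (<7.0), medium (7.0-16.2) or high (16.2-23.2) mL/min/kg.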

C[C@@H]1CN(c2ccc(C#N)c3ncccc23)C[C@@H]2c3ccc(N4CC5CNCC(C4)O5)cc3CN12 [Example 14, 5-[(4R,10bS)-4-methyl-8-(9-oxa-3,7-diazabicyclo[3.3.1]nonan-3-yl)-3,4,6,10b-tetrahydro-1H-pyrazino[2,1-a]isoindol-2-yl]quinoline-8-carbonitrile]
Phototoxicity factor [1]: 1.00
IC50 [1]: > 100 µg/mL
CL (h) [2]: 6.2 mL/min/kg

C[C@@H]1CN(c2ccc(C#N)c3ncccc23)C[C@@H]2c3ccc(N4CCOC[C@@H](N)C4)cc3CN12 [Example 54B, 5-[(4R,10bS)-8-[(6S)-6-amino-1,4-oxazepan-4-yl]-4-methyl-3,4,6,10b-tetrahydro-1H-pyrazino[2,1-a]isoindol-2-yl]quinoline-8-carbonitrile]
Phototoxicity factor [1]: 1.00
IC50 [1]: > 100 µg/mL
CL (h) [2]: 7.0 mL/min/kg
